Tested on: various species of microorganism
Assay: Well diffusion / Kirby-Bauer test, zones of inhibition
Assay type: cell-based
Settings: SA and ASA tested alone, without A^3IS
Protocol: The purpose of the Kirby-Bauer disk diffusion susceptibility test is to determine the sensitivity or resistance of pathogenic aerobic and facultative anaerobic bacteria to various antimicrobial compounds.
Escherichia coli (NCIMB 8545), Staphylococcus aureus (NCIMB 951 and Pseudomonas aeruginosa (NCIMB 8626) are grown on nutrient agar or in nutrient broth for 24 hrs at 37° C.
Candida albicans (NCIMB 3179) and Saccharomyces cerevisiae are grown on sabaroud dextrose agar or in sabaroud dextrose broth for 24 hrs at 37° C.,
Bacterial growth is monitored by measuring the culture optical density (OD) in a spectrophotometer (Anthos 2010) at a wavelength of 620 nm.
Agar plates are inoculated by swabbing overnight culture onto the plate surface. Plates are allowed to stand at room temperature for 15 minutes before use. Wells 8.2 mm diameter are bored into the surface of the agar. A 180 μl sample is placed into each well. The samples diffuse into the agar around the well and are assayed for an ability to produce a zone of inhibition. Plates are incubated for 24, 48 or 72 hrs and zones of inhibition are measured using an Autodata automatic zone reader. The diameter of zones, including the diameter of the well (8.2 mm), is recorded.
Different microbial strains were each plated out according to the above-mentioned methods. […]

Structure (SMILES)	antimicrobial activity
O=C(O)c1ccccc1O [SA, Salicylic acid]	no discernible activity
CC(=O)Oc1ccccc1C(=O)O [ASA, Acetyl salicylic acid]	no discernible activity

Reference: US20230050070A1, “Antimicrobial Composition” (ATLANTIC TECHNOLOGIECAL UNIVERSITY, priority 2019, published 2023)
